According to patent publication US7884136B2, “Modified-release formulations of a bupropion salt” (Biovail Laboratories International S.R.L., priority 2005, dated 2011):

Experiments:
[1] = Accelerated stability study of bupropion HBr, closed bottles, 40° C./75% RH, 3 and 6 months, HPLC; type: physicochemical; details: 40° C./R.H. 75%; for Chromatographic purity B) (HPLC): 4) 2-N-(tert-Butyl)-aminopropiophenone / Chromatographic purity B) (HPLC): 5) single unknown impurity (each): LOQ 0.02%, LOD 0.002%; for Chromatographic purity A) (HPLC): 1) 3′-Chloropropiophenone / Chromatographic purity A) (HPLC): 3) 3′-Chlorobenzoic acid / Chromatographic purity A) (HPLC): 2) 3′-Chloro-2-bromopropiophenone: LOQ 0.05%; for Chromatographic purity A) (HPLC): 1) 3′-Chloropropiophenone / Chromatographic purity A) (HPLC): 3) 3′-Chlorobenzoic acid: LOD 0.01%; for Chromatographic purity A) (HPLC): 2) 3′-Chloro-2-bromopropiophenone: LOD 0.04%; for Assay (HPLC): on d.b.; for Description: specification white or almost white crystalline powder; for Chromatographic purity B) (HPLC): 6) total unknown impurities: sum of all impurity peak areas
Method: The samples were prepared in closed bottles and placed in the stability chamber. HPLC analysis was conducted on the samples prior to placing them in the stability chamber (time 0), and after 3 months and 6 months. The amounts of the main degradation products present at time 0 were compared with those amounts present after 3 months and 6 months. […] For each sample tested, at each time period, two different HPLC assays were run. The first assay labelled chromatographic purity A, measured the percentage of three impurities 3′chloropropiophenone, 3′-Chloro-2-bromopropiophenone and 3′-Chlorobenzoic acid. The second assay, labelled chromatographic purity B, measured the percentage of 2-N-(tert-Butyl)-aminopropiophenone, a single unknown impurity and the total unknown impurities.

[2] = Shelf life stability program of bupropion HBr, 25° C./60% RH, 3 and 6 months, HPLC; type: physicochemical; details: 25° C./RH 60%; for Chromatographic purity B) (HPLC): 4) 2-N-(tert-Butyl)-aminopropiophenone / Chromatographic purity B) (HPLC): 5) single unknown impurity (each): LOQ 0.02%, LOD 0.002%; for Chromatographic purity A) (HPLC): 1) 3′-Chloropropiophenone / Chromatographic purity A) (HPLC): 3) 3′-Chlorobenzoic acid / Chromatographic purity A) (HPLC): 2) 3′-Chloro-2-bromopropiophenone: LOQ 0.05%; for Chromatographic purity A) (HPLC): 1) 3′-Chloropropiophenone / Chromatographic purity A) (HPLC): 3) 3′-Chlorobenzoic acid: LOD 0.01%; for Chromatographic purity A) (HPLC): 2) 3′-Chloro-2-bromopropiophenone: LOD 0.04%; for Description: specification white or almost white crystalline powder; for Chromatographic purity B) (HPLC): 6) total unknown impurities: sum of all impurity peak areas; for Assay (HPLC): on d.b.
Method: The stability of bupropion HBr was studied over a longer term under conditions meant to approximate standard storage or shelf conditions. Samples were prepared in closed containers and subjected to long-term storage at 25° C.+2° C. and 60%+5% RH in a stability chamber. The samples were analyzed by HPLC prior to being placed in the stability chamber (time 0) and after 3 months and 6 months. The amounts of the main degradation products present at time 0 were compared with the amounts present at 3 months and 6 months. As shown in Table 77-79 three different batches of bupropion HBr were tested. As in Example 10 each sample was tested under two HPLC assay conditions to identify 6 impurities or groups of impurities as described in Example 10.

## Br.CC(NC(C)(C)C)C(=O)c1cccc(Cl)c1 (stereo not shown) [Bupropion.HBr D00894]
[1]; 3 month
  Chromatographic purity (HPLC: A + B) Total impurities: 0.1%
  Water content (K.F.): 0.07%
  Chromatographic purity B) (HPLC): 4) 2-N-(tert-Butyl)-aminopropiophenone: 4)0.03%
  Chromatographic purity B) (HPLC): 5) single unknown impurity (each): 5) 0.04%
  Chromatographic purity A) (HPLC): 1) 3′-Chloropropiophenone: 1) n.q.
  Chromatographic purity A) (HPLC): 3) 3′-Chlorobenzoic acid: 3) n.q.
  Chromatographic purity A) (HPLC): 2) 3′-Chloro-2-bromopropiophenone: 2) n.d.
  Assay (HPLC): 99.6%
  Description: conform
  Chromatographic purity B) (HPLC): 6) total unknown impurities: 6) 0.06%
[1]; 6 months
  Chromatographic purity (HPLC: A + B) Total impurities: 0.1%
  Water content (K.F.): 0.08%
  Chromatographic purity B) (HPLC): 4) 2-N-(tert-Butyl)-aminopropiophenone: 4) 0.04%
  Chromatographic purity B) (HPLC): 5) single unknown impurity (each): 5) n.q.
  Chromatographic purity A) (HPLC): 1) 3′-Chloropropiophenone: 1) 0.05%
  Chromatographic purity A) (HPLC): 3) 3′-Chlorobenzoic acid: 3) n.q.
  Chromatographic purity A) (HPLC): 2) 3′-Chloro-2-bromopropiophenone: 2) n.d.
  Description: conform
[1]; time 0
  Chromatographic purity (HPLC: A + B) Total impurities: 0.1%
  Water content (K.F.): 0.05%
  Chromatographic purity B) (HPLC): 4) 2-N-(tert-Butyl)-aminopropiophenone: 4) 0.04%
  Chromatographic purity B) (HPLC): 5) single unknown impurity (each): 5) 0.04%
  Chromatographic purity A) (HPLC): 1) 3′-Chloropropiophenone: 1) n.d.
  Chromatographic purity A) (HPLC): 3) 3′-Chlorobenzoic acid: 3) n.q.
  Chromatographic purity A) (HPLC): 2) 3′-Chloro-2-bromopropiophenone: 2) n.d.
  Assay (HPLC): 99.6%
  Description: conform
  Chromatographic purity B) (HPLC): 6) total unknown impurities: 6) 0.04%

## Br.CC(NC(C)(C)C)C(=O)c1cccc(Cl)c1 (stereo not shown) [Bupropion•HBr D00896]
[2]; 3 months
  Chromatographic purity (HPLC: A + B) Total impurities: 0.1%
  Water content (K.F.): 0.04%
  Chromatographic purity B) (HPLC): 4) 2-N-(tert-Butyl)-aminopropiophenone: 4) 0.03%
  Chromatographic purity B) (HPLC): 5) single unknown impurity (each): 5) 0.04%
  Chromatographic purity A) (HPLC): 1) 3′-Chloropropiophenone: 1) n.q.
  Chromatographic purity A) (HPLC): 3) 3′-Chlorobenzoic acid: 3) n.q.
  Chromatographic purity A) (HPLC): 2) 3′-Chloro-2-bromopropiophenone: 2) n.d.
  Description: conform
  Chromatographic purity B) (HPLC): 6) total unknown impurities: 6) 0.05%
[2]; 6 months
  Chromatographic purity (HPLC: A + B) Total impurities: 0.1%
  Water content (K.F.): 0.04%
  Chromatographic purity B) (HPLC): 4) 2-N-(tert-Butyl)-aminopropiophenone: 4) 0.04%
  Chromatographic purity B) (HPLC): 5) single unknown impurity (each): 5) n.q.
  Chromatographic purity A) (HPLC): 1) 3′-Chloropropiophenone: 1) 0.05%
  Chromatographic purity A) (HPLC): 3) 3′-Chlorobenzoic acid: 3) n.q.
  Chromatographic purity A) (HPLC): 2) 3′-Chloro-2-bromopropiophenone: 2) n.d.
  Assay (HPLC): 100.5%
  Description: conform
  Chromatographic purity B) (HPLC): 6) total unknown impurities: 6) n.q.
[2]; 9 months
  Chromatographic purity (HPLC: A + B) Total impurities: n.q.
  Water content (K.F.): 0.04%
  Chromatographic purity B) (HPLC): 4) 2-N-(tert-Butyl)-aminopropiophenone: 4) n.d.
  Chromatographic purity B) (HPLC): 5) single unknown impurity (each): 5) n.q.
  Chromatographic purity A) (HPLC): 1) 3′-Chloropropiophenone: 1) n.q.
  Chromatographic purity A) (HPLC): 3) 3′-Chlorobenzoic acid: 3) n.q.
  Chromatographic purity A) (HPLC): 2) 3′-Chloro-2-bromopropiophenone: 2) n.d.
  Description: conform
  Chromatographic purity B) (HPLC): 6) total unknown impurities: 6) n.q.
[2]; 12 months
  Chromatographic purity (HPLC: A + B) Total impurities: 0.1%
  Water content (K.F.): 0.03%
  Chromatographic purity B) (HPLC): 4) 2-N-(tert-Butyl)-aminopropiophenone: 4) 0.05%
  Chromatographic purity B) (HPLC): 5) single unknown impurity (each): 5) 0.07%
  Chromatographic purity A) (HPLC): 1) 3′-Chloropropiophenone: 1) n.d.
  Chromatographic purity A) (HPLC): 3) 3′-Chlorobenzoic acid: 3) n.q.
  Chromatographic purity A) (HPLC): 2) 3′-Chloro-2-bromopropiophenone: 2) n.d.
  Assay (HPLC): 100.3%
  Description: conform
  Chromatographic purity B) (HPLC): 6) total unknown impurities: 6) 0.07%
[2]; time 0
  Chromatographic purity (HPLC: A + B) Total impurities: 0.1%
  Water content (K.F.): 0.06%
  Chromatographic purity B) (HPLC): 4) 2-N-(tert-Butyl)-aminopropiophenone: 4) 0.04%
  Chromatographic purity B) (HPLC): 5) single unknown impurity (each): 5) 0.05%
  Chromatographic purity A) (HPLC): 1) 3′-Chloropropiophenone: 1) n.d.
  Chromatographic purity A) (HPLC): 3) 3′-Chlorobenzoic acid: 3) n.q.
  Chromatographic purity A) (HPLC): 2) 3′-Chloro-2-bromopropiophenone: 2) n.d.
  Assay (HPLC): 99.3%
  Description: conform
  Chromatographic purity B) (HPLC): 6) total unknown impurities: 6) 0.05%
